# Measurements from patent US11931347B2, “Method of screening for agents for differentiating stem cells” (MINERVA BIOTECHNOLOGIES CORPORATION, priority 2015, dated 2024).
# Legend:
# [1] = test system: human primed state stem cells; test: stem cell drug screening assay on primed state stem cells; type: cell-based; parameters: key to effect on primed state stem cells, score: “−” indicates that at 6 uM the drug candidate did not have an obvious effect on the pluripotency or proliferation of the stem cells; A “+” indicates a mild effect; a score of −, or +, ++, +++, or ++++ is given; a score of −, or +, ++, +++, or ++++ is given; “++++” indicates a profound effect on pluripotency or proliferation
# Procedure: (§1) The stem cell screening assay, was performed in both the presence and absence of the stem cell growth factors: NME7AB for growing naïve stem cells or FGF for growing primed stem cells. If the cognate growth factor was present, then the biological or small molecule would have to compete away the growth factor to get an effect. Therefore, we expected to see more of an effect when the growth factor, FGF for primed stem cells or NME7AB or NME1 dimers for naïve stem cells, was absent. The effect of the compounds on stem cells was visually determined and compounds were ranked 0-4, with 4 being the greatest effect and 0 being no observable effect. The major effect that was observed was a change from pluripotent stem cell morphology, which is a cobblestone pattern of small round cells with a large nucleus to cytoplasm ratio, to that of differentiating stem cells, which are elongated, large and flattened cells with a smaller nucleus to cytoplasm ratio. […] The compounds were added to a final concentration of 6 uM to either naïve state stem cells or primed state stem cells. In this particular case, the naïve state stem cells were maintained in a naïve state by culturing in a media containing NME7AB or NME1 dimers. However, other methods such as 2i and 5i (Silva et al., 2008, Nichols and Smith, 2009, Theunissen et al., 2014)] can be used to maintain stem cells in a more naïve state. In this case primed state stem cells were cultured in bFGF over a layer of MEFs, although it is known that any bFGF containing media will maintain stem cells in the primed state.
# Stem cells whether embryonic or induced pluripotent stem (iPS) cells were cultured in a minimal, serum-free media that contained human recombinant bFGF at a concentration of 8 ng/mL. The stem cells were plated over a layer of inactivated mouse embryonic fibroblasts, aka MEFs, which secrete additional uncharacterized growth factors and cytokines.
# (§2) Human naïve state and primed stem cells were cultured in parallel for at least 5 passages to guarantee normal differentiation-free growth. The stem cells were plated in 12-well cell culture plates with 50,000 cells per well. Cells were cultured in their respective media, either bFGF media or NME7AB media for 24 hours. Media was then removed and replaced with media devoid of bFGF or NME7AB, when indicated. Agents being tested for their ability to induce differentiation of naïve stem cells were added to the media at the concentrations indicated. After 72 hours, photographs were taken see FIGS. 1-10.
# (§3) Human naïve state and primed stem cells were cultured in parallel for at least 5 passages to guarantee normal differentiation-free growth. The stem cells were plated in 12-well cell culture plates with 50,000 cells per well. Cells were cultured in their respective media, either bFGF media or NME7AB media for 24 hours. Media was then removed and replaced with media devoid of bFGF or NME7AB. […] Media was changed after 48 hours and replaced with fresh media containing the BRD4 inhibitors. After 4 days the experiment was stopped. Photographs were taken and cell pellets collected for further analysis, see FIGS. 11-16.
# [2] = test system: MDA-MB-453 breast cancer cells; test: cancer cell proliferation assay (Calcein); type: cell-based; conditions: 96 hours (FIG. 110)
# Procedure: (§4) Small molecule inhibition of cancer cell proliferation studies were also performed on several cancer sub-types. […] The small molecules of the invention had the most robust effect on T47D breast cancer cells, which are highly positive for MUC1* growth factor receptor, and its activating ligands NME7AB and NME7-X1. […] For the cancer cell proliferation experiment cancer cells were plated at constant densities (6000 cells/well) into a 96-well White-walled/Clear-bottom Tissue Culture Treated plate (Corning Incorporated, Big Flats, N.Y.). Small molecule analogs are added at T=24 hours in media with 2% FBS. Following the addition of the small molecules, the cells remain untouched for 120 hours with visual confirmations/inspections at 24, 48, 72 and 96 hours post plating. At the 120 hour mark a calcein fluorescence assay (Thermo Fisher Scientific, Waltham, Mass.) is performed on the plate. Calcein fluorescence (final concentration 0.5 uM) is used to assess cell viability. Cancer cell fluorescence is measured in a TECAN SAFIRE^2 spectrophotometer plate reader. The plate is then imaged using an Olympus IX71 fluorescence imaging microscope and montage of the resulting images are assembled using ImageJ.
# [3] = test system: DU145 MUC1* positive prostate cancer cells; test: cancer cell proliferation assay (Calcein); type: cell-based; conditions: 96 hours (FIG. 109)
# Procedure: as §4
# [4] = test system: PC-3 MUC1* negative, NME7AB positive prostate cancer cells; test: cancer cell proliferation assay (Calcein); type: cell-based; conditions: 96 hours (FIG. 111)
# Procedure: as §4
# T47D breast cancer cells [5] = test: cancer cell proliferation assay (Calcein live cell stain); type: cell-based, human; conditions: for inhibition of cancer cell proliferation relative to parent compounds: T47D, Calcein assay after 120 hours, 40-2.5 uM
# Procedure: These analogs of MN1194 and 1186 were also tested in a cell growth assay (FIGS. 107A1-107H6 and FIG. 108A1-108H6, respectively). In this experiment, both parent compound and analogs thereof were added to normal cell culture media to final concentrations of 40 uM, 20 uM, 10 uM, 5 uM or 2.5 uM. For comparison, previously known cancer cell migration inhibitors SU11274 and MN1204 were included in the same experiment. […] Relative cell proliferation is quantified on a standard plate reader that reads the fluorescence of the Calcein that is taken up by live cells.
# Small molecule inhibition of cancer cell proliferation studies were also performed on several cancer sub-types. […] The small molecules of the invention had the most robust effect on T47D breast cancer cells, which are highly positive for MUC1* growth factor receptor, and its activating ligands NME7AB and NME7-X1.
# For the cancer cell proliferation experiment cancer cells were plated at constant densities (6000 cells/well) into a 96-well White-walled/Clear-bottom Tissue Culture Treated plate (Corning Incorporated, Big Flats, N.Y.). Small molecule analogs are added at T=24 hours in media with 2% FBS. Following the addition of the small molecules, the cells remain untouched for 120 hours with visual confirmations/inspections at 24, 48, 72 and 96 hours post plating. At the 120 hour mark a calcein fluorescence assay (Thermo Fisher Scientific, Waltham, Mass.) is performed on the plate. Calcein fluorescence (final concentration 0.5 uM) is used to assess cell viability. Cancer cell fluorescence is measured in a TECAN SAFIRE^2 spectrophotometer plate reader. The plate is then imaged using an Olympus IX71 fluorescence imaging microscope and montage of the resulting images are assembled using ImageJ.
# T47D breast cancer cells [6] = test: cancer cell migration, invasion assay (Platypus/Oris system); type: cell-based, human; conditions: T47D; for inhibition of cancer cell migration: 120 hours; for IC50: Homo sapiens, curves calculated from 72 hour post dosing time point, read-out: IC50 of inhibition of cancer cell migration
# Procedure: We then tested an expanded panel of agents, including agents known to inhibit cancer growth or migration (FIG. 17) (Horm et al., 2012; Meng & Yue, 2014; Zhen et al., 2014), which is characteristic of aggressive or metastatic cancers. We also synthesized a series of novel small molecules, tested them in the stem cell drug screening assay, and then synthesized analogs of the best hits. These small molecules are pictured in FIGS. 18-27. Both the known compounds and the novel compounds were tested in the stem cell drug screening assay. The effects of the small molecules on naïve versus primed state stem cells are shown in the photographs of FIGS. 29-72. The small molecules pictured in FIGS. 17-27 and the biologicals were also tested in a cancer cell migration assay. A structure activity relationship table is seen in FIG. 28. Potent cancer cell migration is characteristic of cancer cell invasion of other tissues and of metastasis. Typical migration assays involve coating a cell culture plate with fibronectin, collagen or the like, plating cancer cells and making a scar across through the cells and measuring the time it takes for the cancer cells to invade the void space. An alternative approach that gives more reliable data is the Platypus System which is a special multi-well cell culture plate with a juxtaposed set of plugs that block off a circle in the center of each well. Cancer cells are plated while the plugs are in place, then they are removed after the cells attach to the plate surface. […] A bar graph summarizing the results of the known anti-migration compounds compared to the anti-MUC1* Fab E6 and the first few small molecules synthesized is shown in FIG. 73. The effect of two novel small molecules MN1186 and MN1194, compared to the known anti-migration molecule SU11274, is shown in FIG. 75A-75U. FIG. 75V is a graph showing the measured inhibition of cancer cell migration at time 0, 24 hours or 48 hours for a number of compounds. […] FIG. 75X is a graph showing how IC50's of the small molecules of the invention were measured and calculated.
# Percent inhibition of cancer cell migration was performed in a wound healing assay. The Percent area that the invading cancer cells occupied, in the presence of a drug candidate compared to the controls, was quantified by Image J cell software which enables cell counting from photographs. IC50's were calculated by performing migration experiments at several compound concentrations and then applying Hill's equation. Inhibition of cancer cell proliferation was quantified by automated cell counting in the presence or absence of a drug candidate. Here, the potency of the drug candidate was simply scored 4 for the highest degree of inhibition and 0 for the lowest. […] The effect of each drug candidate was scored 0-4, with 4 being the highest in inhibiting cell proliferation (FIG. 28).
# For the cancer cell migration experiment cancer cells were plated at varying densities into an Oris Cell Migration Assay Collagen-1 coated 96-well plate (Platypus Technologies LLC, Madison, Wis.). The Collagen-1 coated 96-well plate incorporates a specific vacuum plug which attaches to the bottom of each well, creating an area in which the cells cannot grow into. Once the cells have been plated at high densities into each well, they are allotted an 18-24 hour time period to attach to the bottom of the wells. Post-24 hour plugs are removed from the plate and then small molecule analogs are added to the wells. Images are taken of each well and represent time 0 (T=0) for each well. Images are taken of the wells at the 24, 48, 72, 96 and 120 hour time points. Data analysis is conducted using the images taken at these specific time point. Images are imported into ImageJ (Rasband, W. S., ImageJ, U. S. National Institutes of Health, Bethesda, Md., USA, http://imagej.nih.gov/ij/, 1997-2016.) and the area remaining free of cells is calculated. […]
# [7] = test system: human naïve state stem cells; test: stem cell drug screening assay on naïve state stem cells; type: cell-based; parameters: key to effect on naïve stem cells, score: “−” indicates that at 6 uM the drug candidate did not have an obvious effect on the pluripotency or proliferation of the stem cells; A “+” indicates a mild effect; a score of −, or +, ++, +++, or ++++ is given; a score of −, or +, ++, +++, or ++++ is given; “++++” indicates a profound effect on pluripotency or proliferation; conditions: 6 uM, 3 days, NME7AB absent
# Procedure: as §1
# Stem cells whether embryonic or induced pluripotent stem (iPS) cells were cultured in a minimal, serum-free media that contained human recombinant NME7AB at a concentration of 2-32 nM wherein 4-8 nM is preferred and 4 nM is more preferred. To facilitate surface attachment, cell culture plates were coated with an anti-MUC1* monoclonal antibody called MN-C3 or C3 or MN-C8 at a concentration of 2-100 ug/mL coating solution, wherein 3-50 ug/mL is preferred and 6-12.5 ug/mL is more preferred. In these experiments, 12.5 ug/mL of MN-C3 was used. Antibody coated plates were incubated at 4 degrees C. overnight prior to plating stem cells. A Rho kinase I inhibitor was added to enhance surface attachment. In some cases, NME7AB was substituted with human recombinant NME1 dimers which also induce stem cells to revert to a naïve-like state.
# as §2, §3
compound,measurement,setting,value
"Cc1sc2c(c1C)C(c1ccc(Cl)cc1)=N[C@@H](CC(=O)OC(C)(C)C)c1nnc(C)n1-2 [JQ1(−), JQ1]",induction of differentiation of primed state stem cells,"[1]; treated for 3 days, bFGF absent",None of these agents appeared to induce differentiation
CC(C)CC1c2[nH]c3ccccc3c2CCN1C(=O)CCc1ccccc1 (stereo not drawn) [MN1133],inhibition of growth of MDA-MB-453 cells,[2],inhibited the growth
same,inhibition of growth of DU145 cells,[3],inhibited the growth
same,inhibition of growth of PC-3 cells,[4],inhibited the growth
same,inhibition of growth of T47D cells,"T47D breast cancer cells [5]; live cell Calcein stain, 96 hours (FIG. 113)",severely inhibited growth
CC(C)CC1c2[nH]c3ccccc3c2CCN1C(=O)CNC(=O)OC(C)(C)C (stereo not drawn) [MN1186],inhibition of cancer cell migration,T47D breast cancer cells [6],most potent inhibitors of cancer cell migration
same,"effect on primed state stem cells, score","[1]; 6 uM, 3 days, FGF absent",++
same,"effect on naïve stem cells, score",[7],++++
CC(C)CC1c2[nH]c3ccccc3c2CCN1C(=O)CCCNC(=O)OC(C)(C)C (stereo not drawn) [MN1190],inhibition of cancer cell migration,T47D breast cancer cells [6],improvements over MN1186
same,inhibition of cancer cell proliferation relative to parent compounds,T47D breast cancer cells [5],inhibit cancer cell proliferation better than parent compounds
CC(C)CC1c2[nH]c3ccccc3c2CCN1C(=O)CCCCNC(=O)OC(C)(C)C (stereo not drawn) [MN1194],inhibition of cancer cell migration,T47D breast cancer cells [6],most potent inhibitors of cancer cell migration
same,"effect on primed stem cell pluripotency, growth or differentiation (visually determined)","[1]; 6 uM, 3 days",barely affected
same,"effect on naïve stem cells, score",[7],++++
CC(C)CC1c2[nH]c3ccccc3c2CCN1C(=O)CCCCCNC(=O)OC(C)(C)C (stereo not drawn) [MN1195],inhibition of cancer cell migration,T47D breast cancer cells [6],improvements over MN1186
same,inhibition of cancer cell proliferation relative to parent compounds,T47D breast cancer cells [5],inhibit cancer cell proliferation better than parent compounds
CC(C)CC1c2[nH]c3cc(Cl)ccc3c2CCN1C(=O)CNC(=O)OC(C)(C)C (stereo not drawn) [MN1228],inhibition of cancer cell migration,T47D breast cancer cells [6],improvements over MN1186
same,inhibition of cancer cell proliferation relative to parent compounds,T47D breast cancer cells [5],inhibit cancer cell proliferation better than parent compounds
CC(C)CC1c2[nH]c3cc(F)ccc3c2CCN1C(=O)CCCCNC(=O)OC(C)(C)C (stereo not drawn) [MN1229],inhibition of cancer cell migration,T47D breast cancer cells [6],improvements over MN1186
same,inhibition of cancer cell proliferation relative to parent compounds,T47D breast cancer cells [5],inhibit cancer cell proliferation better than parent compounds
Cc1ccc2[nH]c3c(c2c1)CCN(C(=O)C1CCC(CNC(=O)OC(C)(C)C)CC1)C3CC(C)C (stereo not drawn) [MN1265],IC50,T47D breast cancer cells [6],0.77 µM
CC(C)CC1c2[nH]c3ccc(F)cc3c2CCN1C(=O)C1CCC(CNC(=O)OC(C)(C)C)CC1 (stereo not drawn) [MN1266],IC50,T47D breast cancer cells [6],1.29 µM
